We go through six molecules from US20250288599A1, “PHARMACEUTICAL COMPOSITIONS AND METHODS FOR TREATING OSTEOARTHRITIS” (INSIGNIA PHARMACEUTICALS, LLC, priority 2024, published 2025).

The test system of test [1] is MMP13 expression in primary human chondrocytes from an osteoarthritic patient. In words: MMP13 relative expression in primary human osteoarthritic chondrocytes treated with HA and/or Dex. Format: cell-based. The note with it: 0.1% HA, 0.1 μM Dex. The protocol: Without being bound by theory, it is hypothesized that HA treatment in combination with Dex could provide a therapeutic strategy that promotes HA's beneficial effects while maintaining Dex's anti-inflammatory response. To investigate this, primary human chondrocytes from an osteoarthritic patient were treated with 0.1% HA and/or 0.1 μM Dex in monolayer culture or micromass pellets for 14 to 28 days. Total mRNA was then extracted, and qRTPCR was performed with primer pairs specific for MMP13 and the housekeeping gene GAPDH. Relative expression was then calculated versus controls, with each sample normalized to GAPDH amplification.

The subject of test [2] is PGE2 release from passage 3 normal human chondrocytes. In words: Rescue versus preincubation regimens, IL-1β-induced PGE2 release from passage 3 normal human chondrocytes. The format is cell-based. The settings on record: Homo sapiens, Chondrocyte, 25 μM Dec, singlet. An excerpt: The mechanisms of action (MOA) of a drug often dictate the timing and delivery of treatment regimens. While the MOA of compounds disclosed herein continue to be elucidated, experiments were designed to help establish how the drugs should be administered. Furthermore, these experiments will also help with hypothesis generation for subsequent MOA investigations. A low-passage chondrocyte monolayer model was utilized to establish how changes in drug delivery impact the inhibition of IL-1β-induced PGE2 release seen following treatment with the compounds under investigation.
Passage 3 normal human chondrocytes were seeded into tissue culture plates and then tested for compound activity by pre-treating for 24 hours, administering at the same time as activation, or by adding to cells following an overnight activation with IL-1β. Treatment groups included medium control, 25 μM decanoate (Dec), 28 mM D/L sodium Lac, and 10 μM LA. PGE2 release was then evaluated 24- or 96-hours post-activation with percent inhibitions calculated versus plate- and block-matched controls. The experiments were performed in singlet and are intended to be repeated to establish variance.

For test [3], the system named is PGE2 release from normal human chondrocytes. In words: IL-1β-induced PGE2 release from normal human chondrocytes, 24 h, DA vs decanoate working solutions. The format is cell-based. The note with it: for inhibition at 25 µM: Homo sapiens, Chondrocyte, 25 micromolar. The protocol: The activity of DA working solutions prepared in either saline or lactated ringer's (LR) isotonic solutions was assessed. […] In addition, concentrated decanoate working solutions in saline or LR were prepared and added to the cultures at a final concentration of 25 micromolar. PGE2 release was then compared to matching points on the DA or decanoate medium as well as saline and LR controls.

For test [4], the system named is IL-1β release from human THP1 macrophages. In words: Two-hit (LPS then ATP) inflammasome activation model, IL-1β release from THP1 macrophages. The format is cell-based. The settings on record: for IC50: Homo sapiens. The text has this: The proinflammatory cytokine, IL-1β, is released from cells upon activation of the inflammasome, a multi-protein proinflammatory complex. A two-hit model of inflammasome activation in THP1 macrophages was developed that entails an overnight stimulation with LPS followed by a second proinflammatory stimulus, extracellular ATP, which drives inflammasome assembly and subsequent IL-1β release from the cells into the media.

Test [5] has as its system PGE2 in primary human osteoarthritic synoviocytes. In words: Early, pretreatment and intracellular vs secreted PGE2 in IL-1β-stimulated human osteoarthritic synoviocytes. The format is cell-based. The settings on record: 200 nanomolar DA or 500 nanograms/milliliter IL-1RA; IL-1β 1 nanogram/milliliter. As to the method: The concentrations in FIG. 31A were measured at hour three.
Cells were also treated with IL-IRA which inhibits IL-1β by binding the cell-surface […] and inhibiting its dimerization with the IL-1 receptor (IL-1R), effectively blocking IL-1β signaling.
FIG. 33 illustrates two bar graphs that depict the concentrations of PGE2 inside of the cell versus PGE2 that was secreted into the cell culture media. Specifically, the bar graph labeled “Intracellular” illustrates the concentrations of PGE2 inside of the cell and the bar graph labeled “Supernatent” illustrates the concentration of PGE2 that was secreted into the cell culture media. Synoviocytes were stimulated with IL-1β for 6 hours and then cell culture media harvested separately along with collecting cell lysates. […] To test this, the PGE2 concentrations inside of the cells and in the cell culture media were measured to compare them directly to each other.

Test [6] has as its system SOX9 expression in dedifferentiated osteoarthritic chondrocytes. In words: SOX9 relative expression in high passage osteoarthritic chondrocyte monolayer model with TGF-β. The format is cell-based, human. The settings on record: 14 days in culture with TGF-β; 28 mM Lac, 100 mm LA. As to the method:
(§1) These compounds were tested in a high passage osteoarthritic chondrocyte monolayer model, alone or in combination with other agents, for both transcriptional regulation of standard markers and IL-1β-induced PGE2 production.

Test [7] deals with Col2a1 expression in dedifferentiated osteoarthritic chondrocytes. In words: Col2a1 relative expression in high passage osteoarthritic chondrocyte monolayer model with TGF-β. The format is cell-based, human. The note with it: 14 days in culture with TGF-β; 28 mM Lac, 100 mm LA. As to the method: as §1
The subject of test [8] is PGE2 release from dedifferentiated osteoarthritic chondrocytes. In words: IL-1β-induced PGE2 release in high passage osteoarthritic chondrocyte monolayer model, 24 h. The note with it: Homo sapiens. Format: cell-based. As to the method:
as §1

Test [9] concerns SOX9 expression in human osteoarthritic chondrocytes. In words: SOX9 relative expression in high and low passage osteoarthritic chondrocytes, 7, 14 or 28 days. The format is cell-based. The text has this:
Media was exchanged bi-weekly. […] SOX9 is a transcription factor vital to the development and maintenance of cartilage and is required for chondrogenesis. SOX9 promotes chondrocyte survival and transcriptionally activates cartilage-specific genes. SOX9 is repressed in hypertrophic chondrocytes (i.e. terminally differentiated osteoblast-like cells).

The subject of test [10] is PGE2 release from normal human chondrocytes. In words: IL-1β-induced PGE2 release from normal human chondrocyte monolayers, 48 h, competitive EIA. Format: cell-based. The protocol: Mechanical stress and inflammation are thought to sustain catabolic cycles of extracellular matrix deterioration during osteoarthritis. In particular, PGE2 correlates with increased protease production and discomfort or pain in osteoarthritis.
After 48-hours, PGE2 release was evaluated by competitive EIA, and relative potency was calculated versus dose responses of Dex alone.
After 48 hours, PGE2 release was evaluated by competitive enzyme immunoassay (EIA), and relative potency was calculated versus Dex alone.
Lac is commonly thought to be simply an end-product of anaerobic glycolysis; however, it may also have immunomodulatory effects and promote protein modifications that alter gene expression. The goal of this experiment was to determine how Lac supplementation affects early-phase, inflammatory, and late-stage redifferentiation in chondrocyte models. To establish how Lac may influence inflammation early in osteoarthritis, monolayers of normal human chondrocytes were exposed to Lac dose responses of up to 100 millimolar, concurrently with 0.5 nanograms per milliliter IL-1β for 48 hours. The release of PGE2 was then quantified using competitive EIA. To investigate how Lac affects transcriptional programs in dedifferentiated osteoarthritic chondrocytes, monolayer cultures and micromass pellets were treated for 14 days with 100 millimolar final concentrations of Lac, with and without 10 nanograms per milliliter transforming growth factor beta 3 (TGF-β3). Total RNA was then isolated, and relative expression of SOX9 or Col2a1 was calculated using qRT-PCR, normalized to GAPDH.

Test [11] deals with MMP13 expression in human osteoarthritic chondrocytes. In words: MMP13 relative expression in high and low passage osteoarthritic chondrocytes. Format: cell-based. The note with it: low passage osteoarthritic chondrocytes; 7, 14, 28 days.
The mark [12] stands for this setting: 14-day micromass pellet culture.
Setting [13] is: 24 h, rescue (added after overnight IL-1β activation), 24-hour harvest, 28 mM Lac, 10 μM LA.
Where [14] appears, read: high passage, dedifferentiated osteoarthritic chondrocytes with TGF-β3, 14 days.

With hyaluronic acid [HA], the “Observed Relative expression of MMP13” value in test [1] (setting [12]) is recorded as −1.6 fold; in [1] (28-day monolayer culture), 1.0 fold.
Turning to `CCCCCCCCCC(=O)[O-].[Na+]` [Dec, sodium decanoate], the inhibition at 25 µM was 53% in test [2] (24 h, added at the same time as IL-1β, 24-hour harvest); 72% in test [2] (setting [13]); 76% in test [2] (96 h, added at the same time as IL-1β, 96-hour harvest); 57% in [2] (96 h, rescue, 96-hour harvest, 28 mM Lac, 10 μM LA); 41% in test [2] (pre-incubation 24 hours before IL-1β, 24-hour harvest, 28 mM Lac, 10 μM LA); 75% in test [2] (pre-incubation, 96-hour harvest). Besides, the figures for the inhibition at 25 µM in [3] (prepared in LR), in test [3] (prepared in medium) and in [3] (prepared in saline) were 65.2%, 62.3% and 63.2%, respectively. Moreover, the “relative potency of decanoate as compared to DA” value in [3] (95 percent confidence interval of 0.80-1.06) is on record as 0.92. In addition, the “increase in potency of sodium decanoate by 25 nanomolar Dex” value in test [4] came to 4.6 ×. The IC50 in test [4] (THP-1, repeated experiments comparing DA to sodium decanoate) worked out at 146 µM; in test [4] (THP-1, sodium decanoate with addition of 25 nanomolar Dex), 31.5 µM.
As to “IL-1RA: IL-1 Receptor Antagonist, blocks IL-1β signaling”, the “PGE2 release after pretreatment (5 minutes, 1 hour, or 2 hours) then IL-1β 10 minutes or 1 hour” value in [5] was “consistently higher than PGE2 levels in DA treated cells”.
Regarding `O=C(O)CCCCC1CCSS1` (stereo not drawn) [LA, α-lipoic acid], the inhibition at 10 µM in [2] (setting [13]) was determined as 85%; in [8] (LA 10 μM final), 44%. The “increase in SOX9 transcription” value in test [6] was found to be 4 fold. In addition, in test [7], the “increase in Col2a1 compared to controls” value was determined as 218 fold. For the same molecule, the inhibition at 1 µM in test [8] (LA 1 μM final) was 33%. In addition, the inhibition at 100 µM in test [8] (LA 100 μM final) is 93%. Moreover, the SOX9 expression result in test [9] (setting [14]) is “increased SOX9 transcription”.
Molecule `C[C@@H]1C[C@H]2[C@@H]3CCC4=CC(=O)C=C[C@]4(C)[C@@]3(F)[C@@H](O)C[C@]2(C)[C@@]1(O)C(=O)CO` [Dex, dexamethasone, reference compound] returned an inhibition at 0.01 µM in [10] (Homo sapiens, Chondrocyte, Dex 10 nanomolar final, IL-1β 500 pg/mL, 48 h) of 100%. The “concentration at which statistical significance of PGE2 suppression was observed” value in test [10] (IL-1β 48 h) came out at 100 picomolar. In addition, the “Observed Relative expression of MMP13” value in test [1] (setting [12]) is −38.6 fold; in test [1] (28-day monolayer culture), −3.6 fold. Besides, in test [4], the “increased Dex potency by 100 micromolar DA” value turned out to be 1.969 ×. Moreover, the IC50 in test [4] (THP-1, Dex phosphate alone, 1 picomolar to 10 micromolar) turned out to be 0.046 µM; in test [4] (THP-1, Dex with addition of 100 micromolar DA) it was 0.0234 µM.
Regarding `C[C@@H]1C[C@H]2[C@@H]3CCC4=CC(=O)C=C[C@]4(C)[C@@]3(F)[C@@H](O)C[C@]2(C)[C@@]1(O)C(=O)COP(=O)(O)O` [Dxp, dexamethasone phosphate, reference compound], in [11], the MMP13 transcription entry is recorded as “reduce MMP13 transcription”. Also, the SOX9 expression entry in test [9] (setting [14]) is on record as “decreased expression of SOX9”; in test [9] (low passage osteoarthritic chondrocytes, 7, 14, 28 days) it was “temporal decrease in expression of SOX9”.

What is called inhibition is the drop in the measured response relative to a control, in per cent. In general, IC50 refers to the concentration at which inhibition is half-maximal. A lower IC50 goes with greater potency in that assay.
